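Grown in 96-well plates, cells were treated for 48 hours with each compound at five concentrations. Insufficient inhibition: endpoint recorded as highest concentration tested. The concentration for 50% growth inhibition is given as GI50.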 The source made the active and inactive calls. No stated cut-off is given here; in the data, active = GI50 up to about 1.1 µM and inactive = higher.
Experiments:
Test in all cases: growth of human tumour cells (NCI), 48 h
OVCAR-8 = test system: OVCAR-8
786-0 = test system: 786-0
M19-MEL = test system: M19-MEL
UACC-257 = test system: UACC-257
U-251 = test system: U-251
SNB-75 = test system: SNB-75
CCRF-CEM = test system: CCRF-CEM
M14 = test system: M14
SR = test system: SR
SF-268 = test system: SF-268
HOP-62 = test system: HOP-62
NCI-H226 = test system: NCI-H226
HT-29 = test system: HT-29
IGROV-1 = test system: IGROV-1
OVCAR-5 = test system: OVCAR-5
SNB-19 = test system: SNB-19
UO-31 = test system: UO-31

Measured: GI50

COc1c(NC(C)=O)cc(C)cc1NC(C)=O
inactive: OVCAR-8 > 100 µM | 786-0 > 100 µM | M19-MEL > 100 µM | UACC-257 > 100 µM | U-251 > 100 µM | SNB-75 > 100 µM | CCRF-CEM > 100 µM | M14 > 100 µM | SR > 100 µM | SF-268 > 100 µM | HOP-62 > 100 µM

O=S(=O)(NCn1ccc2ccccc21)c1ccccc1
inactive: NCI-H226 > 100 µM | OVCAR-8 > 76.2 µM | HT-29 37 µM | 786-0 > 100 µM | M19-MEL > 100 µM | UACC-257 > 88.7 µM | U-251 > 100 µM | IGROV-1 > 100 µM | OVCAR-5 > 100 µM | SNB-75 > 100 µM | CCRF-CEM > 88.5 µM | M14 > 100 µM | SR 31.6 µM | SF-268 > 57.8 µM | HOP-62 > 100 µM | SNB-19 > 31.6 µM | UO-31 > 100 µM

O=C(/C=C/c1c(O)ccc2ccccc12)c1ccc2ccccc2c1
inactive: NCI-H226 > 100 µM | OVCAR-8 > 100 µM | HT-29 > 100 µM | 786-0 > 100 µM | M19-MEL 18.2 µM | UACC-257 > 100 µM | U-251 > 100 µM | IGROV-1 > 100 µM | OVCAR-5 > 100 µM | SNB-75 > 100 µM | CCRF-CEM > 100 µM | SF-268 > 100 µM | HOP-62 > 100 µM | SNB-19 > 100 µM | UO-31 > 100 µM

CCC[S+]([O-])c1nc(COC(=O)NC)c(COC(=O)NC)n1C (stereo unspecified)
inactive: NCI-H226 > 100 µM | OVCAR-8 > 100 µM | HT-29 > 100 µM | 786-0 > 100 µM | M19-MEL > 100 µM | UACC-257 > 100 µM | U-251 > 100 µM | IGROV-1 > 100 µM | OVCAR-5 > 100 µM | SNB-75 > 100 µM | CCRF-CEM > 100 µM | M14 > 100 µM | SR > 100 µM | SF-268 > 100 µM | HOP-62 > 100 µM | SNB-19 > 100 µM | UO-31 > 100 µM

C[C@H]1COC2(c3ccccc3)CCC(=O)N12 (stereo partly specified)
inactive: OVCAR-8 > 100 µM | HT-29 > 100 µM | 786-0 > 100 µM | M19-MEL > 100 µM | UACC-257 > 100 µM | U-251 > 100 µM | IGROV-1 > 100 µM | OVCAR-5 > 100 µM | SNB-75 > 100 µM | CCRF-CEM > 100 µM | SR > 100 µM | SF-268 > 100 µM | HOP-62 > 100 µM | SNB-19 > 100 µM

Cc1ccc(NC(=O)CC(=O)n2nc(-c3ccccc3)c(/N=N\c3ccccc3[N+](=O)[O-])c2-c2ccccc2)cc1
inactive: OVCAR-8 67.5 µM | HT-29 > 100 µM | 786-0 28.4 µM | M19-MEL > 100 µM | UACC-257 > 100 µM | U-251 52.5 µM | IGROV-1 > 100 µM | OVCAR-5 > 100 µM | SNB-75 69.3 µM | CCRF-CEM > 100 µM | M14 > 100 µM | SR > 100 µM | SF-268 51.2 µM | HOP-62 82.2 µM | SNB-19 56.6 µM | UO-31 > 100 µM

O=c1[nH]c(C2CCCCC2)nc2cc(Cl)ccc12
inactive: NCI-H226 > 100 µM | OVCAR-8 > 100 µM | HT-29 > 100 µM | 786-0 70 µM | M19-MEL > 100 µM | UACC-257 > 100 µM | U-251 > 100 µM | IGROV-1 > 100 µM | OVCAR-5 > 100 µM | SNB-75 55.6 µM | SR > 100 µM | SF-268 > 100 µM | SNB-19 > 100 µM | UO-31 58.2 µM

COCOc1ccc(Cn2c(=O)n(C)c(=O)c3c2ncn3C)cc1[N+](=O)[O-]
inactive: NCI-H226 46.3 µM | OVCAR-8 > 100 µM | HT-29 10.2 µM | 786-0 > 100 µM | M19-MEL > 100 µM | UACC-257 57.5 µM | U-251 > 100 µM | IGROV-1 > 100 µM | SNB-75 59.6 µM | CCRF-CEM > 100 µM | M14 > 100 µM | SR > 100 µM | SF-268 > 100 µM | HOP-62 > 10 µM | SNB-19 > 100 µM | UO-31 > 100 µM

CC(=O)NC(CCCNC(=O)OCc1ccccc1)C(=O)O (stereo unspecified)
inactive: NCI-H226 > 100 µM | OVCAR-8 > 100 µM | HT-29 > 100 µM | 786-0 > 100 µM | M19-MEL > 100 µM | UACC-257 > 100 µM | U-251 > 100 µM | IGROV-1 > 100 µM | OVCAR-5 > 100 µM | SNB-75 68.1 µM | CCRF-CEM > 100 µM | M14 > 100 µM | SF-268 > 100 µM | HOP-62 > 100 µM | SNB-19 > 100 µM | UO-31 > 100 µM

CC1CC(C)C2OC2(C)C[C@H](C)C(=O)NC(C)C(=O)N(C)[C@H](Cc2c(Br)[nH]c3ccccc23)C(=O)N[C@@H](c2ccc(O)cc2)CC(=O)O1 (stereo partly specified)
inactive: OVCAR-8 4.89 µM | 786-0 1.43 µM | UO-31 10 µM
active: NCI-H226 0.373 µM | HT-29 0.106 µM | M19-MEL 0.161 µM | UACC-257 0.418 µM | U-251 0.0404 µM | IGROV-1 0.272 µM | OVCAR-5 0.824 µM | SNB-75 0.142 µM | CCRF-CEM 0.0417 µM | M14 0.729 µM | SR 0.277 µM | SF-268 0.336 µM | HOP-62 0.33 µM | SNB-19 0.0661 µM

CC/C(CC(=O)CCC(=O)Nc1ccc(C)c(C)c1)=N\NC(=O)C(N)=O
inactive: NCI-H226 > 100 µM | OVCAR-8 > 100 µM | HT-29 > 100 µM | 786-0 > 100 µM | M19-MEL > 100 µM | UACC-257 > 100 µM | U-251 > 100 µM | IGROV-1 > 100 µM | OVCAR-5 > 100 µM | SNB-75 > 100 µM | CCRF-CEM > 100 µM | M14 > 100 µM | SR > 100 µM | SF-268 > 100 µM | HOP-62 > 100 µM | SNB-19 > 100 µM | UO-31 > 100 µM

CC1(O)CCn2c(=O)c3cc4ccccc4cc3c(=O)n2C1O (stereo unspecified)
inactive: NCI-H226 > 100 µM | OVCAR-8 > 100 µM | HT-29 > 100 µM | 786-0 > 100 µM | M19-MEL > 100 µM | UACC-257 > 100 µM | U-251 > 100 µM | IGROV-1 > 100 µM | OVCAR-5 > 100 µM | CCRF-CEM > 100 µM | SR > 100 µM | SF-268 > 100 µM | HOP-62 > 100 µM | SNB-19 > 100 µM

CC(=O)O[C@H]1C(=O)[C@@]2(C)C(C(OC(=O)c3ccccc3)[C@]3(O)CC(OC(=O)C(O)C(NC(=O)c4ccc(C(F)(F)F)cc4)c4ccccc4)C(C)=C1C3(C)C)[C@]1(OC(C)=O)CO[C@@H]1C[C@@H]2O (stereo partly specified)
active: NCI-H226 0.0977 µM | OVCAR-8 0.161 µM | HT-29 0.0565 µM | 786-0 0.64 µM | M19-MEL 0.0824 µM | UACC-257 0.236 µM | U-251 0.156 µM | IGROV-1 0.183 µM | OVCAR-5 0.158 µM | SNB-75 0.00375 µM | CCRF-CEM 0.175 µM | M14 0.0682 µM | SR 0.0264 µM | SF-268 0.157 µM | HOP-62 0.0989 µM | SNB-19 0.861 µM

CS(=O)(=O)N(CCC#N)c1ccc(C=O)cc1
inactive: NCI-H226 > 100 µM | OVCAR-8 > 100 µM | HT-29 > 100 µM | 786-0 > 100 µM | M19-MEL > 100 µM | UACC-257 > 100 µM | U-251 > 100 µM | IGROV-1 > 100 µM | OVCAR-5 > 100 µM | SNB-75 > 100 µM | M14 > 100 µM | SR > 100 µM | SF-268 > 100 µM | HOP-62 97.9 µM | SNB-19 > 100 µM | UO-31 > 100 µM

CCc1nc2ccccc2c(=O)n1/N=C(\N=N\c1ccc(Cl)cc1)c1ccccc1
inactive: NCI-H226 21.8 µM | OVCAR-8 35.2 µM | HT-29 15.7 µM | 786-0 23.1 µM | M19-MEL 41.8 µM | UACC-257 13.2 µM | U-251 26.9 µM | IGROV-1 34 µM | OVCAR-5 > 100 µM | SNB-75 14.6 µM | CCRF-CEM 65.8 µM | M14 34.2 µM | SF-268 17.3 µM | HOP-62 24.3 µM | SNB-19 23.4 µM | UO-31 19.5 µM

C=CCNC(=O)/C=C\C(=O)O
inactive: NCI-H226 > 100 µM | OVCAR-8 > 100 µM | HT-29 > 100 µM | 786-0 > 100 µM | M19-MEL > 100 µM | UACC-257 > 100 µM | U-251 > 100 µM | IGROV-1 > 100 µM | OVCAR-5 > 100 µM | SNB-75 > 100 µM | CCRF-CEM > 100 µM | M14 > 100 µM | SR > 100 µM | SF-268 > 100 µM | HOP-62 > 100 µM | SNB-19 > 100 µM | UO-31 > 100 µM

CC(=O)Nc1ccccc1-c1nc2ccccc2nc1C
inactive: NCI-H226 > 100 µM | OVCAR-8 > 100 µM | HT-29 > 100 µM | 786-0 > 100 µM | M19-MEL > 100 µM | UACC-257 > 100 µM | U-251 > 100 µM | IGROV-1 > 100 µM | OVCAR-5 > 100 µM | SNB-75 81.5 µM | CCRF-CEM > 100 µM | M14 > 100 µM | SR > 100 µM | SF-268 > 100 µM | HOP-62 > 100 µM | SNB-19 > 100 µM | UO-31 61.9 µM

Reference: ChEMBL document CHEMBL1201862, “PubChem BioAssay data set” (2004)
